Laboratory results as given in patent publication US4725578A, “Compounds having therapeutic effect and the preparation thereof” (Tobishi Pharmaceutical Co., Ltd., priority 1986, dated 1988).

How the values were obtained:
P-388 cells = experiment: Antineoplastic action against implanted P-388 cells (ip-ip), survival T/C; assay type: in vivo, CDFl mice; conditions: for T/C: P 388 (ip-ip), × 5; for T/C % (Treatment/Control %): Table 6, P388, intraperitoneal
Description: To the peritoneal cavity of each group of mice consisting of six CDFl mice per group, 10^6 /0.1 ml of P-388 cells or 10^5 /0.1 ml of L-1210 cells were implanted. […]
In the Table, the symbol T/C % means Treatment/Control %, that is the increase in life when the control is 100. […] This method is used in the screening of U.S. National Cancer Institute.
(§1) In Table 7, the symbol "i.P.-i.P." means that the tumor cells are implanted intraperitoneally and the compounds being tested are also administered intraperitoneally. The symbol "TR" is the therapeutic ratio obtained by dividing the dose which provides a maximum T/C value, by the dose which provides a minimum T/C value.

L-1210 cells = experiment: Antineoplastic action against implanted L-1210 cells (ip-ip), survival T/C; assay type: in vivo, CDFl mice
Description: In this animal test, the antineoplastic action against the implanted tumor was examined in lower animals, in vivo, in respect of the compounds according to the present invention, by using CDFl mice.
To the peritoneal cavity of each group of mice consisting of six CDFl mice per group, 10^6 /0.1 ml of P-388 cells or 10^5 /0.1 ml of L-1210 cells were implanted. […] While to the control groups of CDFl mice, P-388 and L-1210 cells were implanted in the same manner and they were bred without administration of the compounds.
(§2) In the Table, the symbol T/C % means Treatment/Control %, that is the increase in life when the control is 100. The values are obtained by implanting tumor cells to groups of mice (or rats), administering the compound being tested in various amounts every 24 hours after the implantation of the tumor cells and then calculating the ratio, the median survival time of the group to which the compound has been administered to the survival of the control, multiplied by a factor of 100. This method is used in the screening of U.S. National Cancer Institute.
as §1

B-16 melanoma = experiment: B16 melanoma (ip-ip), survival T/C; assay type: in vivo, mice
Description: as §2, with “Institute. […]” for “Institute.”
as §1

MM2 = MM2 (ip-ip), survival T/C; assay type: in vivo, mice
Description: as §2, with “Institute. […]” for “Institute.”
as §1
The term in Table 7, last column "3/6 60<", means that 3 mice out of 6 mice continue to live more than 60 days after the implantation of the tumor cells.

P 388 = P 388 (ip-iv), survival T/C; assay type: in vivo, mice
Description: as §2
(§3) In Table 9, "iv" and "sc" means that the administration of the compounds is carried out intravenously and the implantation of the tumor cells is carried out subcutaneously.

Yoshida sarcoma [1] = experiment: Yoshida sarcoma (ip-ip), survival T/C; assay type: in vivo
Description: as §2

Yoshida sarcoma [2] = experiment: Yoshida sarcoma (ip-iv), survival T/C; assay type: in vivo
Description: as §2, §3

Erlich carcinoma = Erlich carcinoma (sc-ip), inhibition; assay type: in vivo; conditions: 8 mg/kg × 11, after 14 days
Lewis Lung Carcinoma = Lewis Lung Carcinoma (sc-ip), inhibition; assay type: in vivo; conditions: 0.5 mg/kg × 25, after 17 days
MOPC-104E = MOPC-104E (ip-ip), survival T/C; assay type: in vivo
Description: as §2

C-1498 = C-1498 (ip-ip), survival T/C; assay type: in vivo
Description: as §2

## CCCCCC(=O)Oc1ccc2cc1Oc1ccc(cc1)CC1C(=O)N(C)C(C2)C(=O)NC(C)C(=O)NC(C)C(=O)N(C)C(Cc2ccc(OC)cc2)C(=O)NC(C)C(=O)N1C (stereo not drawn) [Ex. 21, caproate of TPC-A]
P-388 cells; in combination: Mitomycin 0.5 mg/kg + Ex 21 0.5 mg/kg
  T/C: 246.8%
P-388 cells; in combination: Mitomycin 0.5 mg/kg + Ex 21 5 mg/kg
  T/C: 270.3%
P-388 cells; dose 0.05 mg/kg
  T/C % (Treatment/Control %): 133.6%
P-388 cells; dose 0.5 mg/kg
  T/C % (Treatment/Control %): 143.2%
P-388 cells; dose 2 mg/kg
  T/C % (Treatment/Control %): 151.6%
P-388 cells; dose 10 mg/kg
  T/C % (Treatment/Control %): 197.2%
P-388 cells; Table 7, dose 0.01 mg/kg
  P388 (i.P. - i.P.) T/C (%): 133.7%
P-388 cells; Table 7, dose 0.1 mg/kg
  P388 (i.P. - i.P.) T/C (%): 135.9%
P-388 cells; Table 7, dose 2 mg/kg
  P388 (i.P. - i.P.) T/C (%): 152.2%
L-1210 cells; Table 7, dose 0.5 mg/kg
  L1210 (i.P. - i.P.) T/C (%): 115.6%
L-1210 cells; Table 7, dose 2 mg/kg
  L1210 (i.P. - i.P.) T/C (%): 126.6%
L-1210 cells; Table 7, dose 10 mg/kg
  L1210 (i.P. - i.P.) T/C (%): 67.3%
B-16 melanoma; (see Table 7)
  effectiveness against B-16 melanoma: effective
B-16 melanoma; Table 7, dose 0.5 mg/kg
  B16 (i.P. - i.P.) T/C (%): 143.5%
B-16 melanoma; Table 7, dose 2 mg/kg
  B16 (i.P. - i.P.) T/C (%): 152.0%
B-16 melanoma; Table 7, dose 5 mg/kg
  B16 (i.P. - i.P.) T/C (%): 165.5%
MM2; (see Table 7)
  effectiveness against MM2: effective
MM2; Table 7, MM2 (i.P. - i.P.), dose 2 mg/kg
  mice continuing to live more than 60 days after implantation (60<): 2/6
MM2; Table 7, dose 0.5 mg/kg
  MM2 (i.P. - i.P.) T/C (%): 112.1%
MM2; Table 7, dose 2 mg/kg
  MM2 (i.P. - i.P.) T/C (%): 127.3%
MM2; Table 7, dose 10 mg/kg
  MM2 (i.P. - i.P.) T/C (%): 93.9%
P 388; 5.56 mg/kg × 9
  T/C: 117.2%
P 388; 6.94 mg/kg × 9
  T/C: 120.4%
Yoshida sarcoma [1]; 0.1 mg/kg × 5
  T/C: 167.0%
Yoshida sarcoma [1]; 0.5 mg/kg × 5
  T/C: 200.0%
Yoshida sarcoma [1]; 1 mg/kg × 5
  T/C: 213.3%
  animals living more than 30 days (30<): 2/6
Yoshida sarcoma [1]; 2.5 mg/kg × 5
  T/C: 167.0%
Yoshida sarcoma [2]; 0.83 mg/kg × 9
  T/C: 116.7%
Yoshida sarcoma [2]; 1.11 mg/kg × 9
  T/C: 124.8%
Erlich carcinoma
  Inhibition: 58.5%
Lewis Lung Carcinoma
  Inhibition: 24.3%
MOPC-104E; 2 mg/kg × 9 times
  T/C: 120.5%
MOPC-104E; 5 mg/kg × 9 times
  T/C: 136.8%
C-1498; 2 mg/kg × 5 days
  T/C: 110.2%
C-1498; 8 mg/kg × 5 days
  T/C: 122.2%
